We go through seven compounds from paper PMC12951562, “SH2scan: Mapping SH2 Domain-Ligand Binding Selectivity for Inhibitors and Degraders” (Journal of Medicinal Chemistry, 2026).

Holding throughout (assay): biochemical
What all share (type): binding

One experiment concerns the target T1, PTPN11(SH2dom.C-term.) (Homo sapiens, UniProt Q06124).
T1 construct: SH2dom.C-term. denotes SH2 domain closest to C-terminus of protein; made in house; host or cells: HEK293 (transient transfection, unpurified extract)
T1 sequence (Q06124 112-216 limits assumed): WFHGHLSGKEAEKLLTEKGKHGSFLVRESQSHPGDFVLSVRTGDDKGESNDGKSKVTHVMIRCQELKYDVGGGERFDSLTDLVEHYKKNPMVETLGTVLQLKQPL

The target of a further experiment is T2, SH2D1B (Homo sapiens, UniProt O14796).
T2 construct: made in house; host or cells: HEK293 (transient transfection), unpurified extract
T2 sequence (O14796 1-132): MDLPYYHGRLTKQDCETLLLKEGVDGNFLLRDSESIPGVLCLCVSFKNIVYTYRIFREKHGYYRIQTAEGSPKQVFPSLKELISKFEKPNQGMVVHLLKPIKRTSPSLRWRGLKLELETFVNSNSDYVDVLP

Another experiment has as its target T3, FGR (Homo sapiens, UniProt P09769).
T3 construct: the DNA-tagged SH2 domain concentrations used in this study were <0.1 nM; made in house; host or cells: HEK293 (transient transfection; unpurified extract)

Another experiment deals with T4, LYN (Homo sapiens, UniProt P07948).
T4 construct: the DNA-tagged SH2 domain concentrations used in this study were <0.1 nM; made in house; host or cells: HEK293 (transient transfection, unpurified extract)
T4 sequence (P07948 129-226 limits assumed): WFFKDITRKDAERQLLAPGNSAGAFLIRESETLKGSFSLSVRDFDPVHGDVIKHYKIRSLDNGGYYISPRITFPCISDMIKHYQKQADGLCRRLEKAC

The target in a further experiment is T5, RASA1(SH2dom.N-term.) (Homo sapiens, UniProt P20936).
T5 construct: SH2dom.N-term. denotes SH2 domain closest to N-terminus of protein; made in house; host or cells: HEK293 (transient transfection), unpurified extract
T5 sequence (P20936 181-272 limits assumed): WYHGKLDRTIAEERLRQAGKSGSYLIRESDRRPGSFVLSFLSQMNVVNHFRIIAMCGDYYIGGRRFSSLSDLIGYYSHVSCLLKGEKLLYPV

Another experiment concerns the target T6, PTPN6(SH2dom.N-term.) (Homo sapiens, UniProt P29350).
T6 construct: SH2dom.N-term. denotes SH2 domain closest to N-terminus of protein; made in house; host or cells: HEK293 (transient transfection, unpurified extract)
T6 sequence (P29350 4-100 limits assumed): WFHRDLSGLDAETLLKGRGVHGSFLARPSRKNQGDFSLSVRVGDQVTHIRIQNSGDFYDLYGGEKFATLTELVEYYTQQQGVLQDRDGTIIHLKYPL

For a further experiment, the target named is T7, MATK (Homo sapiens, UniProt P42679).
T7 construct: the DNA-tagged SH2 domain concentrations used in this study were <0.1 nM; made in house; host or cells: HEK293 (transient transfection, unpurified extract)
T7 sequence (P42679 122-211 limits assumed): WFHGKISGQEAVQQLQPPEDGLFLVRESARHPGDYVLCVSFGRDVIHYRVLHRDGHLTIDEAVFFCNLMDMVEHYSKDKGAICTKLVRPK

The target in a further experiment is T8, SH2B (SH2B1) (Homo sapiens, UniProt Q9NRF2).
T8 construct: made in house; host or cells: HEK293 (transient transfection), unpurified extract

Another experiment addresses T9, SHB (Homo sapiens, UniProt Q15464).
T9 construct: made in house; host or cells: HEK293 (transient transfection), unpurified extract

The structures appear in SMILES notation. Non-standard residues stand in square brackets, D forms with d. Residues, ends and D or L forms follow the SMILES beside them. pY = N[C@@H](Cc1ccc(OP(=O)(O)O)cc1)C(=O)O

T9 sequence (Q15464 whole entry): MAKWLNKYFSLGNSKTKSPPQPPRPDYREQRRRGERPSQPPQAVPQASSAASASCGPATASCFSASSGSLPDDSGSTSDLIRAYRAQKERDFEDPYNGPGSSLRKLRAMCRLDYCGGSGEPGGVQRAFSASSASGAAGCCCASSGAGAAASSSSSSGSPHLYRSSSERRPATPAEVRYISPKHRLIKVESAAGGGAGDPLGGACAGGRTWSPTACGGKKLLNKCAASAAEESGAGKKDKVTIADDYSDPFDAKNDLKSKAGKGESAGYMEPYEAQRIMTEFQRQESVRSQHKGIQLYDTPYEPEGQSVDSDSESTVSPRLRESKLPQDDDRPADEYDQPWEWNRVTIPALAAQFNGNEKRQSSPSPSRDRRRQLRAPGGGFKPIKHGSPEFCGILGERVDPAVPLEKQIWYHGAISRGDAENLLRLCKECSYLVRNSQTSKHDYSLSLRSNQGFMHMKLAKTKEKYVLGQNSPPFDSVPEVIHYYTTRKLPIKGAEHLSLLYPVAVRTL
T3 sequence (P09769 144-241 limits assumed): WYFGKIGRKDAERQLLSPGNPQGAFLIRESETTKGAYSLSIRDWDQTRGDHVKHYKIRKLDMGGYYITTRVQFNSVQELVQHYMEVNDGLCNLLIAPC

For orientation: Kd means the concentration at which binding is half-saturated. Read a low Kd as higher affinity. `CC[C@H](C)[C@H](NC(=O)[C@@H](NC(=O)[C@H](C)NC(=O)[C@H](Cc1ccc(OP(=O)(O)O)cc1)NC(=O)[C@@H](NC(=O)[C@@H]1CCCN1C(=O)[C@H](CCC(=O)O)NC(=O)[C@@H]1CCCN1C(=O)[C@H](CO)NC(=O)[C@H](C)NC(C)=O)[C@@H](C)CC)[C@@H](C)O)C(=O)N[C@@H](CC(=O)O)C(=O)N[C@@H](Cc1ccccc1)C(=O)N[C@@H](CC(=O)O)C(N)=O` [Ac-ASPEPIpYATIDFD-NH2] registered a Kd at PTPN11(SH2dom.C-term.) of 403 ± 198 nM.

As to `CC[C@H](C)[C@H](NC(=O)[C@@H](NC(=O)[C@H](CC(C)C)NC(=O)[C@H](CO)NC(=O)[C@H](CCCCN)NC(C)=O)[C@@H](C)O)C(=O)N[C@@H](Cc1ccc(OP(=O)(O)O)cc1)C(=O)N[C@@H](C)C(=O)N[C@@H](CCC(N)=O)C(=O)N[C@H](C(=O)N[C@@H](CCC(N)=O)C(=O)N[C@@H](CCCCN)C(N)=O)C(C)C` [Ac-KSLTIpYAQVQK-NH2] (Ac-KSLTI[pY]AQVQK-NH2), the equilibrium dissociation constant (Kd) at SH2D1B came out at 0.14 ± 0.03 nM. With `CC(=O)N1CCC[C@H]1C(=O)N[C@@H](CCC(=O)O)C(=O)NCC(=O)N[C@@H](CC(=O)O)C(=O)N[C@@H](Cc1ccc(OP(=O)(O)O)cc1)C(=O)N[C@@H](CCC(=O)O)C(=O)N[C@@H](CCC(=O)O)C(=O)N[C@H](C(=O)N[C@@H](CC(C)C)C(=O)N[C@@H](CCC(=O)O)C(N)=O)C(C)C` [Ac-PEGDpYEEVLE-NH2] (Ac-PEGD[pY]EEVLE-NH2), the Kd on FGR is 1820 ± 510 nM; on LYN, 765 ± 141 nM. The compound `CC[C@H](C)[C@H](NC(=O)[C@H](CC(N)=O)NC(=O)[C@H](CCC(=O)O)NC(=O)[C@H](CCC(=O)O)NC(=O)[C@H](CCC(=O)O)NC(C)=O)C(=O)N[C@@H](Cc1ccc(OP(=O)(O)O)cc1)C(=O)N[C@@H](CO)C(=O)N[C@H](C(=O)N1CCC[C@H]1C(=O)N[C@@H](Cc1c[nH]cn1)C(=O)N[C@@H](CC(=O)O)C(=O)N[C@@H](CO)C(=O)N[C@H](C(N)=O)[C@@H](C)O)C(C)C` (Ac-EEENI[pY]SVPHDST-NH2) yielded a dissociation constant (Kd) at RASA1(SH2dom.N-term.) of 472 ± 309 nM. For the compound `CC(=O)N[C@@H](CCC(=O)O)C(=O)N[C@@H](CCC(N)=O)C(=O)N[C@@H](CC(=O)O)C(=O)N1CCC[C@H]1C(=O)N[C@@H](CCC(N)=O)C(=O)N[C@@H](CCC(=O)O)C(=O)N[C@H](C(=O)N[C@H](C(=O)N[C@@H](Cc1ccc(OP(=O)(O)O)cc1)C(=O)N[C@@H](C)C(=O)N[C@@H](CCC(N)=O)C(=O)N[C@@H](CC(C)C)C(=O)N[C@@H](CC(N)=O)C(=O)N[C@@H](Cc1c[nH]cn1)C(N)=O)[C@@H](C)O)C(C)C` (Ac-EQDPQEVT[pY]AQLNH-NH2), the Kd at PTPN6(SH2dom.N-term.) is 3.86 ± 0.864 µM. `CC[C@H](C)[C@H](NC(=O)[C@H](CS)NC(=O)[C@H](CCCNC(=N)N)NC(C)=O)C(=O)N[C@@H](CC(N)=O)C(=O)N[C@@H](Cc1ccc(OP(=O)(O)O)cc1)C(=O)N[C@H](C(=O)N[C@@H](Cc1ccccc1)C(=O)N[C@@H](Cc1ccccc1)C(=O)N1CCC[C@H]1C(=O)N[C@@H](CO)C(=O)N[C@@H](CC(C)C)C(=O)N[C@@H](CCCCN)C(=O)N1CCC[C@H]1C(=O)N[C@@H](CO)C(=O)N[C@@H](CO)C(N)=O)C(C)C`: at MATK, the equilibrium dissociation constant (Kd) is 555 ± 128 nM. Take `CC[C@H](C)[C@H](NC(=O)[C@H](CC(N)=O)NC(=O)[C@@H](NC(=O)[C@H](Cc1ccc(OP(=O)(O)O)cc1)NC(=O)[C@H](CCC(=O)O)NC(=O)CNC(=O)[C@@H]1CCCN1C(=O)[C@H](CO)NC(C)=O)C(C)C)C(=O)N[C@@H](CCC(=O)O)C(=O)N[C@@H](Cc1ccccc1)C(=O)NCC(N)=O` [Ac-SPGEpYVNIEFG-NH2]: the Kd on SH2B (SH2B1) came out at 4.46 ± 0.615 µM; on SHB it was 6.03 ± 1.09 µM.
